From patent US6500433B1, “Polypeptide fragments capable of competition with Streptococcus mutans antigen I/II” (The Council of Governors of the United Medical & Dental …, priority 1995, dated 2002) come the findings set out here.

The subject of assay [1] is Sera from mice immunised intraperitoneally with polypeptide 975-1044. Description: Antibody recognition by sera of mice immunised with polypeptide 975-1044. It is filed as binding. As for the experimental part:
(§1) a) intraperitoneally with 50 μg polypeptide in incomplete Freund's adjuvant with a boost after 4 weeks (also 50 μg in incomplete Freund's adjuvant and intraperitoneally).
Sera from mice immunised intraperitoneally with polypeptide 975-1044 recognised intact cells of S.mutans, intact SA I/II and recombinant 975-1044. Peptides 995-1014 and 1025-1044 were also recognised.

Assay [2] concerns the target purified salivary receptor. Kind of assay: BIAcore direct binding to immobilised purified salivary receptor. The arrangement: species or system human. Particulars: dissociation rate constant. The method, then:
SA I/II and recombinant polypeptides were prepared as described above. Salivary receptor was prepared by absorption of whole saliva with intact cells of S. mutans (Lee et al (1989) Infect. Immun. 57:3306-3313). The cells were washed with KPBS (2.7 mM KCl, 137 mM NaCl in 1.5 mM KH2PO4, 6.5 mM Na2HPO4, pH 7.2)and adsorbed material was eluted with 1 mM EDTA in KPBS. Analysis of the purified material by polyacrylamide gel electrophoresis in the presence of Na dodecyl sulphate indicated the presence of components of Mr>200,000 and approximately 40,000. Peptides were prepared by the simultaneous multiple peptide synthesis procedure (Houghten (1985) Proc. Natl. Acad. Sci. USA 82: 5131-5135) as above. In addition, a series of peptides was synthesised corresponding to residues 1025-1044 in which each residue in turn was substituted by alanine.
(§2) Purified SA I/II or salivary receptor was immobilised on the sensor chip surface at a concentration of 100 μg/ml in 10 mM Na formate pH 3.5 using the amine coupling kit (Pharmacia Biosensor).
Purified salivary receptor was immobilised on the sensor chip and binding of SA I/II or purified recombinant polypeptide fragments was determined.

The subject of assay [3] is human sera. Description: Western blotting of serum antibody responses. It is filed as binding. Conditions: panel a. As for the experimental part:
Western blotting. Serum antibody responses were also assayed by Western blotting using SA I/II, the recombinant polypeptides and a control fraction from E. coli BL21 harbouring non-recombinant pET15b. Purified antigens were separated by sodium dodecyl sulphate-polyacrylamide gel electrophoresis (SDS-PAGE) with gels of 10% acrylamide, by using a mini-gel system (Hoeffer Scientific Instruments, San Francisco, Co, USA). Proteins were transferred to nitrocellulose with a semi-dry blotter (Sartorius A. G., Gottingen, Germany). Nitrocellulose strips were blocked with 5% (wt/vol) nonfat milk powder 2.5% (wt/vol) BSA in Tris-HCl-buffered saline (pH 8.0) containing 0.05% (wt/vol) Tween 20. Strips were subsequently incubated with human sera (1 in 20 dilution) or rabbit anti-SA I/II antiserum (10^−4 dilution) and bound antibody was visualised by using alkaline phosphatase-conjugated secondary antibody with 5-bromo-4-chloro-3-indolylphosphate and nitroblue tetrazolium (Sigma Chemical Co.) as substrates. Each sera was assayed three times and responses were considered as positive if bands were visible in at least two assays.
(In general: A western blot detects proteins with antibodies after separation by electrophoresis.)

Assay [4] concerns human serum IgG antibodies. Description: ELISA for serum antibodies. Conditions: sera from 22 individuals. The class given is binding. As for the experimental part:
ELISA for serum antibodies. Antibody recognition of synthetic peptides was determined by ELISA. Peptides (10 μg/ml) in phosphate buffered saline (PBS) were adsorbed to wells of polystyrene microtitre plates (Dynatech) for 2h at room temperature. Plates were washed and wells were treated with 1.5% (w/v) bovine serum albumen (BSA) for 1 h at room temperature to block unbound sites. After washing, bound peptides were incubated with serially diluted sera in duplicate. Bound IgG antibodies were determined by incubation with alkaline phosphate conjugated-goat anti-human Ig (Sigma Chemical Co.) and subsequent reaction with paranitrophenyl phosphate (Sigma Chemical Co.). Plates were read at 405 nm using the microplate reader model 450 (Bio-Rad). After initial screening, the assay was repeated at least 3 times with each serum using a restricted set of peptides. SA I/II (2 μg/ml) was included in each assay as was an irrelevant peptide ([…](SEQ. ID. No. 27) derived from the sequence of SIV p27. Results are expressed as the highest dilution giving an absorbance ≧0.2.
In general terms: ELISA stands for enzyme-linked immunosorbent assay.

For assay [5], the system named is lymphoproliferative response to SA I/II. Description: MHC dependency of proliferative responses to SA I/II (inhibition by MAbs). Conditions: antigen 10 μg/ml. The class given is cell-based, human. As for the experimental part: MHC dependency of proliferative responses to SA I/II was determined by culturing cells with antigen (10 μg/ml) as above in the presence of MAbs L235, W6/32 or ID4 at 1, 10 and 20 μg/ml. Cultures were incubated with [3H]-thymidine, harvested and [^3H]-thymidine uptake was determined as described above.

Assay [6] deals with draining lymph node cells. Kind of assay: Proliferation of lymph node cells of mice immunised with recombinant 975-1044. It is filed as cell-based. Particulars: all mouse strains. The method, then:
i) Groups of mice (3-4 per group) were immunised with 975-1044 (SEQ. ID. No. 8) by two routes:
as §1
b) subcutaneously. A single immunisation with 50 μg polypeptide in incomplete Freund's adjuvant.
ii) Draining lymph nodes were removed 10 to 14 days after immunisation, pooled and homogenised to give a single cell suspension in RPMI 1640 culture medium supplemented with 2 mM glutamine, 1 mM pyruvate, […] 2-mercaptoethanol, 100 u/ml penicillin, 100 μg/ml streptomycin, 100 mM HEPES and 5% foetal calf serum. Cells (2×10^5/well) were cultured with antigen and proliferation was measured by incorporation of [^3H]-thymidine as described above. Antigens were SA I/II recombinant polypeptides, peptides spanning residues 975-1044 and a control protein fraction from E. coli harbouring non-recombinant plasmid.

The subject of assay [7] is receptors in whole saliva. Kind of assay: BIAcore inhibition of binding of immobilised SA I/II to receptors in whole saliva. Also on record: species or system human. Conditions: 6 μM inhibitor in fluid phase saliva; 5 mM calcium. The method, then: as §2
Binding of immobilised SA I/II to receptors in whole saliva was determined in the absence and presence of inhibitors (at varying concentrations). Inhibition by alanine-substituted peptides was analysed at a peptide concentration of 50 μM. The running buffer was HEPES buffered saline (HBS) and the surface was regenerated with 100 mM HCl.
Background: SPR reads the build-up and loss of mass on a sensor chip optically.

For the substance “SA I/II: S. mutans I/II antigen, a cell surface protein with an Mr of about 185 kDa, purified from S. mutans Guy's strain”, the “Antibody recognition, log2 titres” value in assay [1] (strain BALB/C) is reported as 2.8 log2 titres (1 = 1:50); in assay [1] (strain DBA/1), 2.7 log2 titres (1 = 1:50); in assay [1] (strain SJL) it was 4.0 log2 titres (1 = 1:50). The substance further registered a kd in assay [2] of 0.02 s⁻¹. In addition, in assay [3], the “recognition in Western blot” value is reported as “recognised strongly”. The “serum antibody recognition / B cell epitope” value in assay [4] was “recognised by all subjects”. For the same substance, the “mean log2 titre” value in assay [4] (highest dilution giving absorbance ≧0.2) came to 7.6±1.2 log2 titre. The “SI of response to SA I/II without MAb” value in assay [5] is 10.0±3.2. Besides, the “proliferative response (positive: stimulation index ≧3.0, cpm>500)” value in assay [6] was “responded”. For the same substance, the inhibition of binding result in assay [7] is “approximately 90%”.
